# Patent publication US20150080475A1, “Memantine Protects Inflammation-Related Degeneration of Dopamine Neurons Through Inhibition of Over-Activated Microglia and Release of Neurotrophic Factors From Astroglia” (priority 2009, published 2015)
# Experiments:
# Assay type in all cases: cell-based
# microglia [1] = test: Superoxide assay (SOD-inhibitable WST-1 reduction) after LPS; details: 30 min after LPS
# Procedure: Extracellular superoxide (O2^−) production from microglia was determined by measuring the superoxide dismutase (SOD) inhibitable reduction of 2-(4-lodophenyl)-3-(4-nitrophenyl)-5-(2,4,-disulfophenyl)-2H-tetrazolium, monosodium salt, WST-1. Briefly, 200 μL of primary enriched-microglia were seeded (1×10^5/well) in 96-well plates. The cells were then incubated for 24 h at 37° C. in a humidified atmosphere of 5% CO2 and 95% air. Immediately before treatment, cells were washed twice with Hanks balanced salt solution (HBSS). To each well, 100 μL of HBSS with or without SOD (600 U/mL), 50 μL of vehicle or LPS, and 50 μL of WST-1 (1 mM) in HBSS were added. The cultures were incubated for 30 min at 37° C. and 5% CO2 and 95% air. The absorbance at 450 nm was read with a Spectra Max Plus microtiter plate spectrophotometer (Molecular Devices, Sunnyvale, Calif., USA). […] The amount of SOD-inhibitable superoxide was calculated and expressed as percent of vehicle-treated control cultures.
# (§1) Neuron-glia cultures were pretreated for 30 min with MMT (3 μM) or vehicle before LPS stimulation. […] Production of superoxide (30 min after LPS) and iROS (2 h after LPS) was decreased by MMT treatment (FIGS. 6A and 6B). […] The production of PGE2 in cultures pretreated with 3 and 10 μM MMT decreased by 23% and 27% respectively (FIG. 6E).
# DA neurons [2] = test: MPP+-induced reduction in DA uptake in neuron-enriched cultures; details: MMT 1, 3, or 10 μM pre-treatment
# Procedure: Mesencephalic neuron-glia cultures were seeded (5×10^5/well) in 24 well plates precoated with poly D-lysine. Thirty-six hours postseeding, 5-10 μM cytosine β-D-arabinofuranoside was added to the culture. After 2 days, the cytosine β-D-arabinofuranoside was removed and replaced with fresh media. Neuron-enriched cultures are 98% pure, as indicated by ICC staining with OX-42 and GFAP antibodies. Neuron-enriched cultures were treated 7 days post-seeding. For microglia add-back cultures, the microglia were plated on top of the neuron-enriched culture at 6 days postseeding, resulting in the addition of either 10% (500 μL of 1×10^5) or 20% (500 μL of 2×10^5) microglia. […]
# Cells were incubated in Krebs-Ringer buffer (16 mM NaH2PO4, 1.2 mM MgSO4, 1.3 mM EDTA, […], for 21 min at 37° C. with 1 μM [^3H] DA. Nonspecific uptake was blocked for DA with 10 μM mazindole. After incubation, cells were washed three times with 1 mL/well of ice-cold Krebs-Ringer buffer. Cells were then lysed with 0.5 mL/well of 1 N NaOH and mixed with 15 mL of scintillation fluid. Radioactivity was measured on a scintillation counter, where specific [^3H] DA uptake was calculated by subtracting the mazindole.
# To determine whether the neuroprotective effect of MMT was dependent on the presence of glial cells, the effects of MMT on the neuron-enriched cultures were determined. […]
# DA neurons [3] = test: LPS-induced neurotoxicity in neuron/glia cultures from NADPH oxidase-deficient mice; details: NADPH oxidase-deficient (gp 91 lacking) neuron/glia cultures, preliminary data
# Text: Results from two sets of experiments support this conclusion. […] Thus, the failure for MMT to protect LPS-induced DA neurons toxicity in NADPH oxidase-deficient neuron/glia cultures implies a critical role of this enzyme in mediating the neuroprotective effect of MMT. The present invention determines the binding site of MMT in microglia.
# Timed-pregnant (gestational day 14) adult female Fisher 344 rats were purchased from Charles River Laboratories (Raleigh, N.C., USA). Eight-wk-old (25-30 g) male and female B6.129S6-Cybb^tm1Din(PHOX^−/−) and C57BL/6J (PHOX^+/+) mice were purchased from Jackson Laboratories (Bar Harbor, Me., USA) and maintained in a strict pathogen free environment. The PHOX^−/− mice lack the functional catalytic subunit of the NADPH oxidase complex, gp91. NADPH oxidase is an inducible electron transport system in phagocytic cells that is responsible for the generation of the respiratory burst. PHOX^−/− mice are unable to generate extracellular superoxide in response to LPS or other immunological stimulus. Breeding of the mice was designed to achieve accurate timed-pregnancy±0.5 days. Because the PHOX^−/− mutation is maintained in the C57BL/6J background, the C57BL/6J (PHOX^+/+) mice were used as control animals. Housing, breeding and experimental use of the animals were performed in strict accordance with the National Institutes of Health guidelines. […]
# microglia [4] = test: Intracellular reactive oxygen species assay (DCFH oxidation) after LPS; details: 2 h after LPS
# Procedure: The production of intracellular reactive oxygen species (ROS) was measured by DCFH oxidation. The DCFH-DA reagent passively enters cell where it is de-acetylated by esterase to nonfluorescent DCFH. Inside the cell, DCFH reacts with ROS to form DCF, the fluorescent product. For this assay, 10 mM DCFH-DA was dissolved in methanol and was diluted 500-fold in HBSS to give a 20 μM concentration of DCFH-DA. Enriched-microglia cultures seeded (5×10^4) in 96-well plates were then exposed to DCFH-DA for 1 h, followed by treatment with HBSS containing several concentrations of LPS or substance P for 2 h. After incubation, the fluorescence was read at the 485 nm excitation and 530 nm emission on a fluorescence plate reader. […] To calculate the amount of intracellular ROS produced, the mean control treatment was subtracted from the mean treatment group.
# as §1
smiles,measurement,setting,value
"CC12CC3CC(C)(C1)CC(N)(C3)C2.Cl [MMT, 1-amino-3,5-dimethyladamantane hydrochloride]",production of superoxide,microglia [1],decreased
same,protection against MPP+-induced reduction in DA uptake,DA neurons [2],failed to protect
same,neuroprotective effect on LPS-induced neurotoxicity,DA neurons [3],failed to produce any neuroprotective effect
same,production of iROS,microglia [4],decreased
